Columns and labels:
[1] = test system: mice after alcohol intake and alcohol abstinence; experiment: Marble-burying behavior test (MB) in mice after alcohol intake and alcohol abstinence; assay type: in vivo, C57BL/6J mice; details: clemastine 10 mg/kg orally every day from end of EtOH administration to final day of behavioral tests; EtOH+clemastine group vs EtOH group; FIG. 5(b)
Experimental: (§1) Male C57BL/6J mice at the age of 4 weeks (P28) were used. The mice were accommodated in a plastic cage and maintained at a light-dark cycle of 12 hours (lighting at 8:00 A.M.) with ad libitum access to feed and water.
(§2) Sixteen mice were orally administered EtOH (3.0 g/kg; diluted to 25% with sterile water) intermittently from P28 to P45 for 10 days in total (once a day) according to the schedule of FIG. 1(a). Sixteen control mice were orally administered sterile water in the same amount as that in the mice administered EtOH.
(§3) All the behavioral experiments were performed between 10:00 A.M. and 6:00 P.M. To obtain an indicator of sociality, a social interaction test was conducted. To obtain an indicator of anxiety behavior, a marble-burying behavior test and a novelty suppressed feeding test were conducted. To obtain an indicator of cognitive function, a novel object recognition test was conducted. To reduce influences from previous experiments, the social interaction test, the marble-burying behavior test, the novelty suppressed feeding test, and the novel object recognition test were conducted in the stated order. […]
The marble-burying behavior test was conducted by a method in conformity with a previous report (Alkam T et al., Behav Brain Res. 2013 Feb. 15; 239: 80-9). […] When ⅔ of the surface area of a marble was covered with the sawdust, the marble was counted as being buried. […]

[2] = test system: myelin sheath marker (MAG) in prefrontal cortexes of mice after alcohol intake and alcohol abstinence; experiment: Immunohistochemical staining of prefrontal cortex with myelin sheath marker (MAG), myelin sheath formation enhancing effect; assay type: in vivo; details: clemastine 10 mg/kg orally every day after end of EtOH administration, ImageJ, FIG. 8(b), 8(c)
Experimental: Mice (4 mice for each group) were administered EtOH in the same manner as in Examples 1 and 2. Control mice (4 mice for each group) were orally administered sterile water in the same amount as that in the mice administered EtOH. […] Frozen slices of prefrontal cortexes and hippocampuses of the mice prepared were heated in a 10 mM citrate buffer solution (pH 6.0) with a microwave oven for 5 minutes. After washed with PBS, the slices were subjected to blocking with 5% normal horse serum (Cat #S-2000, Vector Laboratories, Inc., Burlingame, CA, USA) in PBST for 1 hour. After that, the slices were caused to react with one of primary antibodies at 4° C. overnight. After washed with PBST, the slices were caused to react with a secondary antibody (1:2,000) at room temperature for 3 hours. The primary antibodies used were a mouse anti-CC1 antibody (1:500; Cat #MABF850, Millipore) and a goat anti-PDGFRα antibody (1:200; Cat #AF1062, R&D Systems Inc.)

[3] = test system: mice after alcohol intake and alcohol abstinence; experiment: Social interaction test (SIT) in mice after alcohol intake and alcohol abstinence; assay type: in vivo, C57BL/6J mice; details: clemastine 10 mg/kg orally every day from end of EtOH administration to final day of behavioral tests; EtOH+clemastine group vs EtOH group; FIG. 5(b)
Experimental: as §1, §2
All the behavioral experiments were performed between 10:00 A.M. and 6:00 P.M. To obtain an indicator of sociality, a social interaction test was conducted. To obtain an indicator of anxiety behavior, a marble-burying behavior test and a novelty suppressed feeding test were conducted. To obtain an indicator of cognitive function, a novel object recognition test was conducted. […]
The social interaction test was conducted by a method in conformity with a previous report (Mouri A et al., J Neurosci. 2012 Mar. 28; 32(13): 4562-80). […] A time length of a social interaction (e.g., smelling each other, grooming each other, pursuing, mounting, or crawling) was recorded. […]

[4] = test system: mice after alcohol intake and alcohol abstinence; experiment: Novelty suppressed feeding test (NSF) in mice after alcohol intake and alcohol abstinence; assay type: in vivo, C57BL/6J mice; details: clemastine 10 mg/kg orally every day from end of EtOH administration to final day of behavioral tests; EtOH+clemastine group vs EtOH group; FIG. 5(b)
Experimental: as §1, §2, §3
The novelty suppressed feeding test was conducted by a method in conformity with a previous report (Lu Q et al., Behav Brain Res. 2019 Oct. 17; 372: 112053). […] A latency time taken for feed intake was recorded. […]

CN1CCC[C@@H]1CCO[C@](C)(c1ccccc1)c1ccc(Cl)cc1 [clemastine]
significantly remitted: anxiety-like behavior (marble-burying behavior test) [1] | myelin sheath abnormality in the prefrontal cortexes (MAG signal intensity) [2] | social interaction reduction (social interaction test) [3] | anxiety-like behavior (novelty suppressed feeding test) [4]

From patent publication US20250164463A1, “SCREENING METHOD AND THERAPEUTIC AGENT FOR MENTAL DISORDER” (Fujita Health University, priority 2022, published 2025)
